Experimental data: patent publication US20030144310A1 (priority 2001, published 2003)

Experiments:
rNPFF-1 [1] = target: T1, rNPFF-1 (Rattus norvegicus, UniProt Q9EP86); assay: Radioligand binding assay, competitive displacement of [125I]1DMeNPFF at cloned NPFF receptors; conditions: cloned rat receptor
T1 construct: expressed in transfected cells

rNPFF-2 [2] = target: T2, rNPFF-2 (Rattus norvegicus, UniProt Q9EQD2); assay: as above; conditions: cloned rat receptor
T2 construct: expressed in transfected cells
T2 sequence (Q9EQD2 whole entry): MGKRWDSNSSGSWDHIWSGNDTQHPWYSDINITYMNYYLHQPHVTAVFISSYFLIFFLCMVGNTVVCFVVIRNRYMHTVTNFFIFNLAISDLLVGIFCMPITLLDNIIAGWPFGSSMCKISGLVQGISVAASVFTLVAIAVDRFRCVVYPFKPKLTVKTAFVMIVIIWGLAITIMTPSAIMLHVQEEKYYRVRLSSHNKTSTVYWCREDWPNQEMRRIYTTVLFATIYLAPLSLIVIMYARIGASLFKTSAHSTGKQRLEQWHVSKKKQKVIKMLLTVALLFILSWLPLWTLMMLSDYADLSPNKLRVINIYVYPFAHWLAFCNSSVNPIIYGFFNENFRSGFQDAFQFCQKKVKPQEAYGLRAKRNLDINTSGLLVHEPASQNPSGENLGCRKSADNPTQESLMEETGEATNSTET

rNPFF-1 [3] = target: T1, rNPFF-1; assay: Functional activity (EC50 and intrinsic activity relative to NPFF); assay type: cell-based; conditions: for Functional Activity rNPFF-1 I.A. %: intrinsic activity as percentage of maximal response by NPFF; for EC50: tested 0.001 nM to 3600 nM
Source text: (§1) The data shown are representative of at least two independent experiments.

rNPFF-2 [4] = target: T2, rNPFF-2; assay: as above; assay type: cell-based; conditions: for Functional Activity rNPFF-2 I.A. %: intrinsic activity as percentage of maximal response by NPFF; for EC50: tested 0.001 nM to 3600 nM, read-out: Functional Activity rNPFF-2 EC50
Source text: as §1

T1 sequence (Q9EP86 whole entry): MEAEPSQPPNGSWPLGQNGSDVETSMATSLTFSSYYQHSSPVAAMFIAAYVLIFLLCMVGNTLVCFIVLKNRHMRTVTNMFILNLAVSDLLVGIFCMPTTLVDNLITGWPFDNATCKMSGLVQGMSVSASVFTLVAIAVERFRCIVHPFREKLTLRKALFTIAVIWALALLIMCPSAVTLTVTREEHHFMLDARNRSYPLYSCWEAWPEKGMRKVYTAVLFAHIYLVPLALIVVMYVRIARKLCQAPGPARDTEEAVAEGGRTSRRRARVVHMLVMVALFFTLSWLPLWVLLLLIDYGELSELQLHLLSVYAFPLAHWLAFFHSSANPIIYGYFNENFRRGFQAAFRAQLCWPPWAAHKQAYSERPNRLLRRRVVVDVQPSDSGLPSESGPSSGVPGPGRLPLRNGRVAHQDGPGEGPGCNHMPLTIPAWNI

| Structure (SMILES) | Ki (rNPFF-1 [1]) [nM] | Ki (rNPFF-2 [2]) [nM] | Functional Activity rNPFF-1 I.A. % (rNPFF-1 [3]) [%] | EC50 (rNPFF-1 [3]) [nM] | Functional Activity rNPFF-2 I.A. % (rNPFF-2 [4]) [%] | EC50 (rNPFF-2 [4]) [nM] |
| --- | --- | --- | --- | --- | --- | --- |
| N=C(N)NCCC[C@H](NS(=O)(=O)c1cccc2ccccc12)C(=O)N[C@@H](Cc1ccccc1)C(N)=O [Compound 1001, N1-[(1S)-2-Amino-1-benzyl-2-oxoethyl]-(2S)-(5-guanidino)-2-[(1-naphthylsulfonyl)amino]pentanamide] | 261 | 1450 | 88 | 38 | 81 | 527 |
| N=C(N)NCCC[C@H](NS(=O)(=O)c1cccc([N+](=O)[O-])c1)C(=O)N[C@@H](Cc1ccccc1)C(N)=O [Compound 1002] | 136 | 1250 | 88 | 139 | 89 | 846 |
| N=C(N)NCCC[C@H](NS(=O)(=O)c1ccc([N+](=O)[O-])cc1)C(=O)N[C@@H](Cc1ccccc1)C(N)=O [Compound 1003] | 732 | 2610 | 74 | 149 | 44 | 1870 |
| N=C(N)NCCC[C@H](NS(=O)(=O)c1c(F)cccc1F)C(=O)N[C@@H](Cc1ccccc1)C(N)=O [Compound 1004] | 173 | 1450 | 79 | 117 | 43 |  |
| N=C(N)NCCC[C@H](NS(=O)(=O)c1ccc(F)cc1)C(=O)N[C@@H](Cc1ccccc1)C(N)=O [Compound 1005] | 150 | 1370 | 71 | 104 | 46 | 3500 |
| N=C(N)NCCC[C@H](NS(=O)(=O)c1ccc(Cl)cc1)C(=O)N[C@@H](Cc1ccccc1)C(N)=O [Compound 1006] | 266 | 1010 | 75 | 151 | 43 | 3720 |
| Cc1ccc(S(=O)(=O)N[C@@H](CCCNC(=N)N)C(=O)N[C@@H](Cc2ccccc2)C(N)=O)cc1 [Compound 1007] | 756 | 3080 | 79 | 286 | 55 | 2300 |
| N=C(N)NCCC[C@H](NS(=O)(=O)c1ccccc1)C(=O)N[C@@H](Cc1ccccc1)C(N)=O [Compound 1008] | 321 | 4410 | 70 | 4700 | 20 | 5620 |
| COc1ccc(S(=O)(=O)N[C@@H](CCCNC(=N)N)C(=O)N[C@@H](Cc2ccccc2)C(N)=O)cc1 [Compound 1009] | 321 | 1090 |  |  |  |  |
| N=C(N)NCCC[C@H](NS(=O)(=O)c1ccc(Cl)cc1Cl)C(=O)N[C@@H](Cc1ccccc1)C(N)=O [Compound 1010] | 871 | 1860 | 85 | 594 | 28 | 2980 |
| N=C(N)NCCC[C@H](NS(=O)(=O)Cc1ccccc1)C(=O)N[C@@H](Cc1ccccc1)C(N)=O [Compound 1011, N1-[(1S)-2-Amino-1-benzyl-2-oxoethyl]-(25)-5-[amino(imino)methyl]amino-2-[(benzylsulfonyl)amino]pentanamide] | 5960 | > 10000 | 74 | 765 | 62 | 1340 |
| N=C(N)NCCC[C@H](NS(=O)(=O)c1ccc(I)cc1)C(=O)N[C@@H](Cc1ccccc1)C(N)=O [Compound 1012] | 1430 | 2920 | 71 | 358 | 93 | 1420 |
| N=C(N)NCCC[C@H](NS(=O)(=O)c1cccs1)C(=O)N[C@@H](Cc1ccccc1)C(N)=O [Compound 1013] | 211 | 6390 | 80 | 135 | 42 | > 3160 |
| N=C(N)NCCC[C@H](NS(=O)(=O)c1ccc2ccccc2c1)C(=O)N[C@@H](Cc1ccccc1)C(N)=O [Compound 1014, N1-[(1S)-2-Amino-1-benzyl-2-oxoethyl]-(2S)-(5-guanidino)-2-[(2-naphthylsulfonyl)amino]pentanamide] | 314 | 2780 | 74 | 52 | 73 | 906 |
| COc1ccc(S(=O)(=O)N[C@@H](CCCNC(=N)N)C(=O)N[C@@H](Cc2ccccc2)C(N)=O)cc1OC [Compound 1015] | 462 | > 10000 | 84 | 140 | 74 | 1810 |
| N=C(N)NCCC[C@H](NS(=O)(=O)c1ccc(Cl)c([N+](=O)[O-])c1)C(=O)N[C@@H](Cc1ccccc1)C(N)=O [Compound 1016] | 151 | 2090 | 72 | 62 | 81 | 660 |
